This note sets out measurements from patent EP4786487A1, “PEPTIDE” (Peptidream Inc, priority 2023, dated 2025).

Molecules are shown by their SMILES. pIC50: −log10 of the molar value. Starred links: 1 amine or outer side, 2 acyl side, 3 side chain; linkers in the order of their positions; H or OH if unused. Positions of bridges follow the written chain, without caps; N, C: chain ends. Non-standard residues stand in square brackets, D forms with d. Residues, ends and D or L forms follow the SMILES beside them. Phe(3-OCH2COOH) = N[C@@H](Cc1cccc(OCC(=O)O)c1)C(=O)O; Phe(4-COOH) = N[C@@H](Cc1ccc(C(=O)O)cc1)C(=O)O; Gly(N(CH2)3COOH) = O=C(O)CCCNCC(=O)O; X1 = CCCCCCC[C@H](N[*:1])C(=O)[*:2]; NMeF = CN[C@@H](Cc1ccccc1)C(=O)O; NMeA = CN[C@@H](C)C(=O)O

In general, pIC50 refers to the negative decadic logarithm of the IC50, by convention in mol/L.

The test addresses T1, GDF-11 (Homo sapiens, UniProt O95390).
T1 construct: purchased R&D systems 1958-GD-G8/CF
T1 sequence (O95390 299-407): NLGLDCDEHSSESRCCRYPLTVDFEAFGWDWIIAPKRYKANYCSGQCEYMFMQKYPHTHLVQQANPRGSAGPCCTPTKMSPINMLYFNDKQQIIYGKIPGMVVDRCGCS
The test can be described thus: Reporter gene assay for myostatin signaling in HepG2 cell line, Evaluation Procedure (1), GDF-11 inhibition. It is filed as cell-based. As to conditions: Method A: GDF-11 10 ng/mL; read-out: IC50 (Luciferase) GDF-11 HepG2. In a few lines:
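HepG2 cells transfected with pGL3(CAGA)12-luciferase reporter, serum-starved in 0.1% BSA medium, then stimulated with myostatin or GDF-11 plus 4-fold peptide dilutions (0.006–100 nmol/L for myostatin, 0.12–2000 nmol/L for GDF-11) for 20–24 h at 37 °C. Luminescence read with One-Glo; IC50 calculated.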

Regarding `CCCCCCC[C@@H]1NC(=O)[C@H](Cc2ccccc2)N(C)C(=O)[C@H](CCCNC(=N)N)NC(=O)[C@H](Cc2ccc(C(=O)O)cc2)NC(=O)[C@H](Cc2cccc(OCC(=O)O)c2)NC(=O)[C@H](C)N(C)C(=O)[C@H]([C@@H](C)CC)NC(=O)[C@H](Cc2ccccc2)N(C)C(=O)[C@H](Cc2ccc(O)cc2)NC(=O)[C@H](Cc2c[nH]c3ccccc23)NC(=O)[C@H](C)NC(=O)CN(CCCC(=O)O)C(=O)CSC[C@H](C(=O)O)NC(=O)[C@H](Cc2ccccc2)N(C)C(=O)[C@H](C)N(C)C1=O` [Myostatin_99_v145] ({CH2CO}-[Gly(N(CH2)3COOH)]AWY[NMeF]I[NMeA][Phe(3-OCH2COOH)][Phe(4-COOH)]R[NMeF][X1][NMeA][NMeF][dC]-OH; thioether N-15), the pIC50 is 6.38.
